Laboratory results as given in PubChem BioAssay (NCI).
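Dose response: 5 concentrations. Exposure: 48 h. Format: 96-well plates. Endpoint: linear interpolation; highest concentration if not reached. TGI marks complete inhibition of growth.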

Assays:
Assay in all cases: growth of human tumour cells (NCI), 48 h
A549 NSCLC = tested on: A549 NSCLC
MALME-3M melanoma = tested on: MALME-3M melanoma
MDA-N = tested on: MDA-N
COLO 205 colon = tested on: COLO 205 colon
SN12C renal = tested on: SN12C renal
SK-MEL-2 melanoma = tested on: SK-MEL-2 melanoma
LOX IMVI melanoma = tested on: LOX IMVI melanoma
K-562 leukemia = tested on: K-562 leukemia
PC-3 prostate = tested on: PC-3 prostate
M14 melanoma = tested on: M14 melanoma
HCC-2998 colon = tested on: HCC-2998 colon
SW-620 colon = tested on: SW-620 colon
SF-539 CNS = tested on: SF-539 CNS
HOP-62 NSCLC = tested on: HOP-62 NSCLC
HCT-116 colon = tested on: HCT-116 colon
SK-MEL-28 melanoma = tested on: SK-MEL-28 melanoma
SF-268 CNS = tested on: SF-268 CNS
MOLT-4 leukemia = tested on: MOLT-4 leukemia
UACC-62 melanoma = tested on: UACC-62 melanoma
MDA-MB-435 = tested on: MDA-MB-435

Structure (SMILES) | TGI (A549 NSCLC) [µM] | TGI (MALME-3M melanoma) [µM] | TGI (MDA-N) [µM] | TGI (COLO 205 colon) [µM] | TGI (SN12C renal) [µM] | TGI (SK-MEL-2 melanoma) [µM] | TGI (LOX IMVI melanoma) [µM] | TGI (K-562 leukemia) [µM] | TGI (PC-3 prostate) [µM] | TGI (M14 melanoma) [µM] | TGI (HCC-2998 colon) [µM] | TGI (SW-620 colon) [µM] | TGI (SF-539 CNS) [µM] | TGI (HOP-62 NSCLC) [µM] | TGI (HCT-116 colon) [µM] | TGI (SK-MEL-28 melanoma) [µM] | TGI (SF-268 CNS) [µM] | TGI (MOLT-4 leukemia) [µM] | TGI (UACC-62 melanoma) [µM] | TGI (MDA-MB-435) [µM]
CC(C)N(/C(F)=N\C(=O)Nc1ccccc1C(F)(F)F)C(C)C | > 100 | > 100 | > 100 | > 100 | > 100 | 78.5 | > 100 | > 100 | > 100 | > 100 | 99 | > 100 | > 100 | > 100 | > 100 | > 100 | > 100 | – | – | –
N#CCCN(CCC#N)c1ccc(C(N=Nc2ccc(Cl)cc2)=Nc2ccc(Cl)cc2)cc1 | 41 | – | 40.8 | 31.9 | 33.5 | 25 | – | > 100 | 32.1 | 58.7 | 27.1 | 34.3 | 38.6 | 50.8 | 36.5 | > 100 | 33.4 | 87.8 | 30.2 | 88.3
Cc1ccc([N+](=O)[O-])cc1S(=O)(=O)Nc1ccc(C2=NN(S(=O)(=O)c3cc([N+](=O)[O-])ccc3C)C(c3ccco3)C2)cc1 (stereo unspecified) | – | > 100 | > 100 | > 100 | > 100 | > 100 | > 100 | > 100 | > 100 | > 100 | – | > 100 | > 100 | > 100 | > 100 | > 100 | > 100 | > 100 | > 100 | > 100
CC(C)(SCc1ccccc1)C(N)C(=O)O (stereo unspecified) | > 100 | > 100 | > 100 | – | > 100 | > 100 | > 100 | > 100 | > 100 | > 100 | – | > 100 | – | > 100 | > 100 | > 100 | > 100 | > 100 | > 100 | > 100
O=P1(Oc2ccccc2)NCc2ncccc2O1 (stereo unspecified) | > 100 | – | > 100 | > 100 | > 100 | > 100 | > 100 | > 100 | > 100 | > 100 | > 100 | > 100 | > 100 | > 100 | > 100 | > 100 | – | > 100 | > 100 | > 100
CC(=O)OC1OC(c2ccoc2)C[C@@]12C1CCC3O[C@]3(C)[C@]1(C)C[C@H](OC(C)=O)[C@H]2C (stereo partly specified) | > 75 | – | > 75 | > 75 | > 75 | > 75 | > 75 | > 75 | > 75 | > 75 | > 75 | > 75 | > 75 | – | > 75 | > 75 | > 75 | > 75 | > 75 | > 75
C=CCN1C[C@@H](C)N([C@@H](c2ccc(C(=O)N(CC)CC)cc2)c2cccc(OC)c2)C[C@@H]1C | > 100 | > 100 | > 100 | > 100 | > 100 | > 100 | > 100 | > 100 | > 100 | > 100 | – | > 100 | > 100 | > 100 | > 100 | > 100 | > 100 | > 100 | > 100 | > 100
CN(C)/C=C/c1c2c(nc3ccccc13)C(=O)c1ccccc1C2=O | 8.72 | – | 0.957 | 5.5 | 2.84 | 6.27 | 0.294 | > 100 | 3.77 | 1.92 | 5.17 | 5.04 | 5.4 | 1.32 | 3.26 | 0.55 | 5.26 | 6.32 | 0.739 | 0.206
COC(=O)C1=COc2c(n(C)c3ccccc23)-c2ccccc21 | – | > 100 | > 100 | > 100 | > 100 | > 100 | > 100 | > 100 | > 100 | > 100 | – | > 100 | > 100 | > 100 | > 100 | – | > 100 | > 100 | > 100 | > 100
O=c1[nH]c(=O)n2n1C1C=CC2CC1 | > 100 | – | > 100 | > 100 | > 100 | > 100 | > 100 | > 100 | > 100 | > 100 | – | > 100 | > 100 | > 100 | > 100 | > 100 | > 100 | > 100 | > 100 | > 100
COc1cccc(C=C2N=C(C)N(n3c(-c4ccccc4)nc4ccccc4c3=O)C2=O)c1 | > 100 | – | > 100 | > 100 | > 100 | – | > 100 | > 100 | > 100 | > 100 | > 100 | > 100 | > 100 | > 100 | > 100 | > 100 | > 100 | > 100 | > 100 | > 100
CC1CC(C(=O)OC2OC(COC3OC(CO)C(OC4OC(C)C(O)C(O)C4O)C(O)C3O)C(O)C(O)C2O)C2CCC3(C)C(=CCC4(C)C3CCC3C(C)(CO)C(O)C(O)CC34C)C2C1C (stereo unspecified) | > 100 | – | 36.4 | 32.7 | 37 | 42.2 | 58.8 | > 100 | 84.6 | > 100 | 40.8 | 88.3 | 38 | 37.2 | 41.7 | 33.5 | 37.8 | 41.4 | 32.7 | 34.5
COc1ccc(/C=C2\CN(C)CC3C2=NN(c2ccccc2)C3c2ccc(OC)cc2)cc1 (stereo unspecified) | > 100 | > 100 | > 100 | > 100 | > 100 | – | > 100 | > 100 | – | > 100 | > 100 | > 100 | – | > 100 | > 100 | > 100 | > 100 | > 100 | > 100 | > 100
S=C(c1c[nH]c2ccccc12)N1CCCCC1 | – | > 100 | > 100 | > 100 | > 100 | > 100 | > 100 | > 100 | > 100 | > 100 | – | > 100 | > 100 | > 100 | > 100 | > 100 | > 100 | > 100 | > 100 | > 100
CC(=O)C1=C(C)N(c2ccccc2)C2(O)C=CC(=O)C3=C(O)c4ccccc4C(=O)C312 (stereo unspecified) | > 100 | 2.64 | – | 36.8 | 30.3 | 39.2 | 83 | > 100 | 41.5 | 58.8 | 25.4 | > 100 | 46.7 | 72.1 | > 100 | 52.2 | 57.8 | > 100 | 34.1 | 5.19
Cc1ccc(S(=O)(=O)N2CCCSCCN(S(=O)(=O)c3ccc(C)cc3)CCCSCC2)cc1 | > 100 | – | > 100 | > 100 | > 100 | > 100 | – | > 100 | – | > 100 | > 100 | > 100 | > 100 | > 100 | > 100 | > 100 | > 100 | > 100 | > 100 | > 100
NC(=O)CNC(=O)[C@@H]1C[C@@H](OCCC(=O)O)CN1C(=O)OCc1ccccc1 | > 100 | > 100 | > 100 | > 100 | > 100 | > 100 | > 100 | > 100 | > 100 | > 100 | – | > 100 | – | > 100 | > 100 | > 100 | > 100 | > 100 | > 100 | > 100
O=C1C=C2CC[C@H]3[C@@H]4CC[C@H](Oc5c6ccccc6nc6ccccc56)[C@H]4CC[C@@H]3[C@H]2CC1 | > 100 | – | 75.2 | > 100 | > 100 | > 100 | > 100 | > 100 | > 100 | > 100 | – | > 100 | > 100 | > 100 | > 100 | > 100 | > 100 | – | > 100 | > 100
COc1ccc(-c2nc3cc(C(F)(F)F)ccc3n2CC2CCCN3CCCCC23)cc1 (stereo unspecified) | – | – | 33.4 | – | – | 28.9 | 28.3 | 28 | 26.5 | 25.6 | 24.5 | 28.5 | 30.5 | 38.5 | 33.6 | 28.2 | 28.6 | 28.7 | – | 34.3
C[N+](C)(C)C(C1=CCCC1=O)c1ccccc1 (stereo unspecified) | > 100 | 41 | > 100 | > 100 | 44 | > 100 | 38.3 | > 100 | > 100 | > 100 | – | 70.4 | > 100 | 80.2 | 32.1 | > 100 | 60.1 | 58.3 | 38.8 | 72.7
CCOC(=O)C1=C(C)NC(C)=C(C(=O)OCC)C1c1ccc(C)cc1 | > 100 | – | > 100 | – | 80.5 | 98.4 | > 100 | > 100 | 66 | > 100 | > 100 | > 100 | 91.4 | > 100 | > 100 | > 100 | > 100 | 74.6 | > 100 | > 100
O=[N+]([O-])c1ccc(O)c(C=NCC2CCCN3CCCCC23)c1 (stereo unspecified) | > 100 | > 100 | > 100 | 75.9 | – | – | > 100 | – | > 100 | 53.2 | 74.5 | – | > 100 | > 100 | > 100 | – | 75.5 | – | 78.8 | –
Brc1ccc(-c2cc(-c3ccc4c(c3)OCO4)c(-c3cccs3)n2Cc2ccccc2)cc1 | > 100 | – | > 100 | > 100 | > 100 | > 100 | – | > 100 | > 100 | > 100 | > 100 | > 100 | > 100 | > 100 | > 100 | > 100 | > 100 | > 100 | > 100 | > 100
CC(=O)N(C(C)=O)n1nc2c(n1)C(=O)c1ccccc1C2=O | > 100 | > 100 | > 100 | > 100 | > 100 | > 100 | > 100 | – | > 100 | > 100 | – | > 100 | > 100 | > 100 | > 100 | > 100 | > 100 | > 100 | > 100 | > 100
Cc1nnc([C@@]2(C)CC[C@H]3[C@@H](CCC4=CC(=O)CC[C@@]43C)[C@@H]2CC#N)o1 | > 100 | > 100 | > 100 | > 100 | > 100 | > 100 | > 100 | > 100 | > 100 | > 100 | – | > 100 | > 100 | > 100 | > 100 | – | > 100 | > 100 | > 100 | > 100
